# Patent US11135310B2, “Gold porphyrin-PEG conjugates and methods of use” (The University of Hong Kong, priority 2015, dated 2021)
# Like-named read-outs stand apart in the source and are kept apart here.
# Key:
# HeLa = test: In vitro cytotoxicity, MTT assay; assay type: cell-based, human
# Description: Therefore, it was anticipated that a not too high loading of DOX into nanostructures of 1 could be used for anti-cancer purposes in order to maintain low toxicity toward non-tumorigenic cells. Together with the higher encapsulation efficiency of DOX, NC1 was selected for investigations of the in vitro cytotoxicity. […] The in vitro cytotoxicity of NC1 was also compared to that of the mixture of nanostructures of 1 and DOX. […] The observed cytotoxicity was further evaluated by the combination index (CI), which can describe the effect of drug combination. […] It is shown that dose and effect are interchangeable via defined parameters. This general equation for the single drug effect has been extended to the multiple drug effect equation for n drugs. These equations provide the theoretical basis for the combination index (CI)-isobologram equation that allows quantitative determination of drug interactions, where CI<1, =1, and >1 indicate synergism, additive effect, and antagonism, respectively. [Chou, et al. Pharmacol. Rev. 2006, 58, 621] […] The synergistic effect can originate from different molecular targets and/or mechanism of action of DOX from that of gold(III) porphyrin complexes. […] These different modes of action would allow supra-additive effect on killing HeLa cells by the co-delivery.
# NCI-H460 = test: In vitro cytotoxicity, MTT assay; assay type: cell-based, human; conditions: for IC50: MTT assay, 72 h incubation
# HCT116 = test: In vitro cytotoxicity, MTT assay; assay type: cell-based, human; conditions: for IC50: HCT116, MTT assay, 72 h incubation
# A2780 = test: In vitro cytotoxicity, MTT assay; assay type: cell-based, human; conditions: for IC50: MTT assay, 72 h incubation
# A2780cis = test: In vitro cytotoxicity, MTT assay; assay type: cell-based, human; conditions: for IC50: MTT assay, 72 h incubation; for Resistance found in A2780cis: Determined by IC50 of A2780cis cells/IC50 of A2780 cells
# NCM460 = test: In vitro cytotoxicity, MTT assay; assay type: cell-based, human; conditions: 72 h incubation
# CCD-19Lu = test: In vitro cytotoxicity, MTT assay; assay type: cell-based; conditions: 72 h incubation
# non-tumorigenic cells = test: In vitro cytotoxicity, MTT assay, non-tumorigenic cells; assay type: cell-based; conditions: 72 h
# HCT116 cells [1] = test: Hydrolysis of the gold(III) complexes in live cells, UPLC-QTOF-MS; assay type: in vitro ADME, human; conditions: 2 μM, 24 h, UPLC-QTOF-MS of lysates
# Description: Hydrolysis of the gold(III) complexes in live cells has been studied by ultra-performance liquid chromatography coupled quadrupole-time-of-flight mass spectrometry (UPLC-QTOF-MS). Colon cancer cells, HCT116, were treated with 1 and A1 (2 μM) for 24 h, harvested and lysed by acetonitrile-water solution mixture (3:1, v/v) prior to UPLC-QTOF-MS analysis. […] In view of the fact that the peak with retention time of 6.44 min in the total-ion chromatogram of cell lysates of HCT116 treated with 1 was absence in the total-ion chromatogram of 1 in acetonitrile solution, this peak should be owing to the metabolite of 1 formed in HCT116 cells.
# A2780adr cells [2] = test: Cellular uptake by ICP-MS; assay type: cell-based, human; conditions: 2 μM, 37° C.
# Description: Based on the results of previous study on cellular uptake of nanostructures [Davis, M. E. et al. Nat. Rev. Drug Discov. 2008, 7, 771] and the strong dependence of the uptake mechanism of 1 on temperature, K^+ concentration and hypertonic condition (FIG. 3d), nanostructures of 1 likely entered live cells by clathrin-mediated endocytosis.
# To rationalize the lower toxicity of NC1 toward MIHA cells, cellular uptake of NC1 by MIHA and cancer cells has been investigated by ICP-MS (FIGS. 3b and 4). The gold contents in A2780 and A2780adr cells were 2.6- and 2.0-fold higher than that in MIHA cells, respectively, after incubation with NC1 for 2 h. […] On the other hand, co-incubation of MIHA cells with 1 and DOX should not lead to significant changes in cellular uptake rate of DOX. […] For NC1, it was less toxic toward MIHA cells as reflected by the apparent “strong antagonism” (Table 3), which should be owing to the decrease of DOX cellular uptake by the encapsulation from the nanostructures of 1, rather than real antagonism from DOX and 1.
# HCT116 xenografts = assay type: in vivo; conditions: 4 mg/kg intravenous, 24 days, n=8, p<0.01
# Description: FIGS. 8B and 8C show changes in tumor volume and body weight, respectively, in mice (n=8) after treatment with different doses of 1 or A1. The control group received an equal volume of PBS only. ** denotes p<0.01 vs. control.
# Significant pulmonary hemorrhage in the alveoli and a thickening of alveolar walls were found. Also, apoptotic hepatocytes and swollen renal epithelial cells were found, leading to subsequent shrinkage of kidney tubules. […] The lower systemic toxicity of 1 can be explained by the lower accumulation of 1 in the organs of mice treated at its effective dosage, as compared to that of A1 and Au1a (FIG. 10).
# [3] = Systemic toxicity in mice bearing HCT116 xenografts (body weight, histopathology, blood biochemistry); assay type: in vivo
# Description: FIGS. 9A-9H show blood biochemistry analysis of ALT, AST, GLB, BUN, CREA, UA, LDH and CK, respectively, in the mice (n=8) at 24 days post-treatment.
# A2780adr [4] = conditions: for IC50: MTT assay, 72 h incubation; for Resistance found in A2780adr: Determined by IC50 of A2780adr cells/IC50 of A2780 cells
# MIHA = test: In vitro cytotoxicity, MTT assay
# HCT116 cells [5] = test: Induction of apoptosis, CellEvent Caspase-3/7 Green (microscopy and flow cytometry); assay type: cell-based, human; conditions: NC1 ([1]=3.5 μM and [DOX]=0.5 μM) or DOX alone
# A2780adr cells [6] = test: Cellular uptake of DOX, cell lysates by UPLC-QTOF-MS; assay type: cell-based, human; conditions: for Uptake of DOX by A2780adr cells: [DOX]=0.5 μM
# A2780adr [7] = test: cells; conditions: Homo sapiens, A2780 ADR, 72 h
# [8] = MTT assay, 72 h incubation, read-out: IC50
# [9] = IC50 of MIHA cells/IC50 of cancer cells
# [10] = IC50 of NCM460 cells/IC50 of cancer cells
# [11] = HCT-116, IC50 of MIHA cells/IC50 of cancer cells
# [12] = HCT-116, IC50 of NCM460 cells/IC50 of cancer cells
# [13] = A2780cis, IC50 of MIHA cells/IC50 of cancer cells
# [14] = A2780cis, IC50 of NCM460 cells/IC50 of cancer cells
# [15] = A2780adr, IC50 of MIHA cells/IC50 of cancer cells
# [16] = A2780adr, IC50 of NCM460 cells/IC50 of cancer cells
# [17] = MIHA, MTT assay, 72 h incubation
smiles,measurement,setting,value
COC(=O)c1ccc(-c2c3nc(c(-c4ccccc4)c4ccc([n-]4)c(-c4ccccc4)c4nc(c(-c5ccccc5)c5ccc2[n-]5)C=C4)C=C3)cc1.[Au+3].[Cl-] [A1],Toxicity toward cancer cells compared to that toward MIHA cells,HeLa; IC50 of non-tumorigenic MIHA cells/IC50 of cancer cells,0.9
same,Toxicity toward cancer cells compared to that toward NCM460 cells,HeLa; IC50 of non-tumorigenic NCM460 cells/IC50 of cancer cells,0.2
same,IC50,HeLa; [8],800 ± 100 nM
same,Toxicity toward cancer cells compared to that toward MIHA cells,NCI-H460; [9],7.0
same,Toxicity toward cancer cells compared to that toward NCM460 cells,NCI-H460; [10],1.3
same,IC50,NCI-H460,100 ± 10 nM
same,IC50,HCT116,90 ± 10 nM
same,Toxicity toward cancer cells compared to that toward MIHA cells,HCT116; [11],7.7
same,Toxicity toward cancer cells compared to that toward NCM460 cells,HCT116; [12],1.4
same,Toxicity toward cancer cells compared to that toward MIHA cells,A2780; [9],3.5
same,Toxicity toward cancer cells compared to that toward NCM460 cells,A2780; [10],0.7
same,IC50,A2780,200 ± 20 nM
same,Toxicity toward cancer cells compared to that toward MIHA cells,A2780cis; [13],3.5
same,Toxicity toward cancer cells compared to that toward NCM460 cells,A2780cis; [14],0.7
same,IC50,A2780cis; A2780cis,200 ± 30 nM
same,Resistance found in A2780cis,A2780cis,1.0
same,IC50,NCM460,130 ± 10 nM
same,IC50,CCD-19Lu,730 ± 40 nM
same,IC50 for non-tumorigenic cells,non-tumorigenic cells,submicromolar range
same,Species formed by hydrolysis of ester bond in cells,HCT116 cells [1],[Au(TPP—COOH)]^+
same,Incubation time after which amount in A2780adr cells decreases,A2780adr cells [2],0.75 h
same,Reduction of tumor volume,HCT116 xenografts,56%
same,Reduction of tumor weight,HCT116 xenografts,49%
same,Blood biochemistry (organ damage indicators),"[3]; 4 mg/kg, for 1: ALT, GLB, BUN and CK, p<0.05","significant damage in the lung, liver and kidney"
same,"Histopathological analysis of lung, liver, kidney, heart and spleen",[3]; after treatment (A1: 4 mg/kg),"damage in normal lung, liver and kidney tissues"
same,Toxicity toward cancer cells compared to that toward MIHA cells,A2780adr [4]; [15],1.1
same,Toxicity toward cancer cells compared to that toward NCM460 cells,A2780adr [4]; [16],0.2
same,IC50,A2780adr [4]; A2780adr,650 ± 60 nM
same,Resistance found in A2780adr,A2780adr [4],0.31
same,IC50,MIHA; [17],700 ± 100 nM
Oc1ccc(-c2c3nc(c(-c4ccccc4)c4ccc([n-]4)c(-c4ccccc4)c4nc(c(-c5ccccc5)c5ccc2[n-]5)C=C4)C=C3)cc1.[Au+3].[Cl-] [A4],IC50,HeLa; [8],380 ± 70 nM
same,IC50,NCI-H460,150 ± 3 nM
same,IC50 for non-tumorigenic cells,non-tumorigenic cells,submicromolar range
same,IC50,A2780adr [4]; A2780adr,530 ± 140 nM
same,IC50,MIHA; [17],570 ± 40 nM
O=C(O)CCCCCCCCC(=O)Oc1ccc(-c2c3nc(c(-c4ccccc4)c4ccc([n-]4)c(-c4ccccc4)c4nc(c(-c5ccccc5)c5ccc2[n-]5)C=C4)C=C3)cc1.[Au+3].[Cl-] [A10],IC50,HeLa; [8],410 ± 50 nM
same,IC50,NCI-H460,180 ± 4 nM
same,IC50 for non-tumorigenic cells,non-tumorigenic cells,submicromolar range
same,IC50,A2780adr [4]; A2780adr,520 ± 60 nM
same,IC50,MIHA; [17],610 ± 50 nM
"N.N.[Cl][Pt][Cl] [Cisplatin, cisplatin, reference compound]",IC50,HeLa; [8],19800 ± 1400 nM
same,IC50,NCI-H460,65400 ± 5000 nM
same,IC50,HCT116,15700 ± 2200 nM
same,IC50,A2780,2600 ± 300 nM
same,IC50,A2780cis; A2780cis,8400 ± 50 nM
same,Resistance found in A2780cis,A2780cis,0.31
same,IC50,NCM460,12300 ± 900 nM
same,IC50,CCD-19Lu,49100 ± 5400 nM
same,IC50,A2780adr [4]; A2780adr,12700 ± 1900 nM
same,Resistance found in A2780adr,A2780adr [4],0.20
same,IC50,MIHA; [17],17600 ± 1300 nM
"COc1cccc2c1C(=O)c1c(O)c3c(c(O)c1C2=O)C[C@@](O)(C(=O)CO)C[C@@H]3O[C@H]1C[C@H](N)[C@H](O)[C@H](C)O1 [DOX, doxorubicin]",IC50,"HeLa; Homo sapiens, 72 h, read-out: DOX at IC50",570 nM
same,IC50,"HeLa; Homo sapiens, 72 h, read-out: Total dose at IC50",570 nM
same,IC50,"HeLa; Homo sapiens, MTT assay, 72 h incubation, read-out: IC50",570 ± 60 nM
same,Toxicity (of DOX) toward cancer cells compared to that toward MIHA cells,"HeLa; IC50 of MIHA cells/IC50 of cancer cells, cytotoxicity of 1 in NC1 not considered",0.2
same,Toxicity (of DOX) toward cancer cells compared to that toward NCM460 cells,"HeLa; IC50 of NCM460 cells/IC50 of cancer cells, cytotoxicity of 1 in NC1 not considered",1.8
same,IC50,NCI-H460; Homo sapiens,36 ± 10 nM
same,Toxicity (of DOX) toward cancer cells compared to that toward MIHA cells,NCI-H460; [9],2.8
same,Toxicity (of DOX) toward cancer cells compared to that toward NCM460 cells,NCI-H460; [10],27.8
same,Toxicity (of DOX) toward cancer cells compared to that toward MIHA cells,HCT116; [11],0.7
same,Toxicity (of DOX) toward cancer cells compared to that toward NCM460 cells,HCT116; [12],7.1
same,IC50,"HCT116; Homo sapiens, HCT-116",140 ± 20 nM
same,IC50,A2780; Homo sapiens,45 ± 7 nM
same,Toxicity (of DOX) toward cancer cells compared to that toward MIHA cells,A2780; [9],2.2
same,Toxicity (of DOX) toward cancer cells compared to that toward NCM460 cells,A2780; [10],22.2
same,Toxicity (of DOX) toward cancer cells compared to that toward MIHA cells,A2780cis; [13],1.9
same,Toxicity (of DOX) toward cancer cells compared to that toward NCM460 cells,A2780cis; [14],18.5
same,IC50,"A2780cis; Homo sapiens, A2780cis",54 ± 5 nM
same,Incubation time for induction of apoptosis of HCT116 cells,HCT116 cells [5],30 h
same,DOX uptake smaller than after incubation of NC1,A2780adr cells [6]; 14 h,1.8 fold
same,DOX uptake smaller than after incubation of NC1,A2780adr cells [6]; 24 h,3.0 fold
same,Uptake of DOX by A2780adr cells,A2780adr cells [6]; incubation 14 h,33.9 μg per g of proteins
same,Uptake of DOX by A2780adr cells,A2780adr cells [6]; incubation 24 h,27.8 μg per g of proteins
same,Toxicity (of DOX) toward cancer cells compared to that toward MIHA cells,A2780adr [4]; [15],0.1
same,Toxicity (of DOX) toward cancer cells compared to that toward NCM460 cells,A2780adr [4]; [16],1.5
same,Lower cytotoxicity toward A2780adr cells than non-resistant A2780 cells,A2780adr [4]; from IC50 of Table 1,15 fold
same,IC50,A2780adr [7],680 ± 50 nM
same,IC50,A2780adr [7]; read-out: DOX at IC50,700 nM
same,IC50,A2780adr [7]; read-out: Total dose at IC50,700 nM
same,IC50,MIHA; 72 h,100 ± 10 nM
same,IC50,"MIHA; 72 h, read-out: DOX at IC50",100 nM
same,IC50,"MIHA; 72 h, read-out: Total dose at IC50",100 nM
